Test results reported in patent publication US20260200849A1, “CATIONIC LIPIDS AND PREPARATION METHOD THEREOF” (RiboX Therapeutics HK Limited, priority 2024, published 2026).
Several values for one entry are separate records, joined by “and”; a condition that tells them apart may be missing. Equal values may be shown once.

Key:
[1] = RNA encapsulation efficacy (EE %) by Quant-IT Ribogreen kit; type: physicochemical; settings: LNP
Procedure: (§1) The LNP size and polydispersity index (PDI), determined by dynamic light scattering (DLS), and zeta potential were measured by a Zetasizer machine (Malvern). RNA concentration and encapsulation efficacy (EE %) were analyzed by the Quant-IT Ribogreen kit by calculating the percentage encapsulation at 100%—(RNA-LNPs/RNA-LNPs with Triton X-100).

[2] = test system: injection site skin; test: In vivo tolerability after intradermal injection: H&E staining of injection site skin; parameters: species or system C57BL/6J mice; key to Infiltration, mononuclear cells, dermis/subcutaneous, focal, Grade / Edema, subcutaneous, focal, Grade / Erosion, focal, Grade / Skin, Grade: 1==minimal; 2=mild; 3=moderate; 4=marked; 5=severe; N=Normal; NA=Not applicable; —=No data; settings: intradermal 0.15 mg/kg, 72 h, Formulation 001, RNA 331; for Total score: sum of lesion grades of the group (N=3)
Procedure: 7-8 week old, female C57BL/6J mice (N=3) were injected with 0.15 mg*kg−1 of RNA-LNIPs encoding for firefly-luciferase by intradermal injection. At 72-hours post injection, injection site skin from each animal was collected in 10% formalin, for H&E staining. PBS group (N=2) as control. (Note: 1==minimal, 2=mild, 3=moderate, 4=marked, 5=severe; N=Normal; NA=Not applicable; —=No data)

[3] = test system: C57BL/6J mice; test: In vivo expression by ID, whole-body/injection site skin/lymph node luminescence; settings: intradermal 0.15 mg/kg, 72 h post injection, female C57BL/6J mice N=3, Formulation 001, RNA 331
Procedure: 7-8 week old, female C57BL/6J mice (N=3) were injected with 0.15 mg*kg−1 of RNA-LNPs encoding for firefly-luciferase by intradermal injection. At 72-hours post injection, animals were intraperitoneally injected with 15 mg/mi of Luciferin substrate and whole-body/injection site skin/lymph node luminescence were determined by a bioluminescent in vivo imaging system (IVIS).

[4] = test system: C57BL/6J mice; test: In vivo expression by IM, luciferase RNA-LNPs, whole-body/injection site muscle/organ luminescence; settings: IM 1.0 mg/kg, 24 h post injection, male C57BL/6J mice N=3, Formulation 001, RNA 331
Procedure: 6-8 week old, male C57BL/6J mice (N=3) were injected with 1.0 mg*kg−1 of RNA-LNPs encoding for firefly-luciferase by intramuscular injection. At 24-hours post injection, animals were intraperitoneally injected with 15 mg/ml of Luciferin substrate and whole-body/injection site muscle/liver/spleen/kidney/heart/lung luminescence were determined by a bioluminescent in vivo imaging system (IVIS).

[5] = test system: Hep G2 cells; test: In vitro toxicity: Hep G2 cell viability by CellTiter-Glo; type: cell-based; settings: 72 hours post transfection, cell only = 100%
Procedure: 2E5 Hep G2 cells were transfected with 1 μg/mL RNA-LNPs. At 72 hours post transfection, cell viability (2-well repeat) was determined with the CellTiter-Glo® reagent kit, according to the kit protocol, measured by a luminometer. Cell only as control (100%).
The cell viability was calculated according to the following formula: […]

[6] = test system: MCP-1; test: In vivo tolerability by IM: serum MCP-1 by Luminex; settings: IM 1.0 mg/kg, male C57BL/6J mice N=3, Formulation 001, RNA 331
Procedure: 6-8 week old, male C57BL/6J mice (N=3) were injected with 1.0 mg*kg−1 of RNA-LNPs encoding for firefly-luciferase by intramuscular injection. At 2- and 24-hours post injection, about 40 μL blood was harvested and immediately added to the procoagulant containing tube. Stand for 30 min at room temperature and then centrifuged at 2500 g×10 min to obtain serum. About 15 μL serum samples were aliquoted for cytokine (MCP-1 and IL-6) detection by Luminex (ProcartaPlex Mouse 2-plex, Thermo). PBS group as negative control.

[7] = test system: Balb/c mice; test: In vivo expression by IV, 0.05 mg/kg luciferase RNA-LNPs, IVIS luminescence; settings: female Balb/c mice, 0.05 mg*kg−1 intravenous; for Whole body at 24 h (p/s) (Mean) / Whole body at 72 h (p/s) (Mean): Formulation No. 010, RNA No. 331; for Whole body at 24 h (p/s) (Mean): 24 hours post injection; for Whole body at 72 h (p/s) (Mean): 72 hours post injection
Method in brief: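 IVIS bioluminescence was read after IP luciferin (15 mg/ml): whole-body at 24 and 72 h, or whole-body/liver/spleen at 24 h. Dosing was a single IV injection of 0.05 mg*kg−1 RNA-LNPs encoding firefly luciferase into 7-8 week old female Balb/c mice, N=3.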

[8] = LNP size and polydispersity index (PDI) by dynamic light scattering (Zetasizer); type: physicochemical; settings: for Size (nm): RNA No. 331
Procedure: as §1

[9] = test system: Hep G2 cells; test: In vitro expression: luciferase activity in Hep G2 cells transfected with RNA-LNPs; type: cell-based; settings: 100 ng/mL RNA-LNPs, 72 hours post transfection
Procedure: 2E5 Hep G2 cells were transfected with 100 ng/mL of RNA-LNPs encoding for firefly-luciferase. At 72 hours post transfection, the cells were washed and lysed. The luciferase expression (2-well repeat) was determined in the cell lysates with the luciferase assay reagent kit (Promega), according to the kit protocol, luciferase activity was measured by a luminometer.

[10] = Formulation No. 001, RNA No. 019 (hEPO)
[11] = Formulation No. 001, RNA No. 331
[12] = Formulation No. 010, RNA No. 331
[13] = 1 μg/mL RNA-LNPs, Formulation 001, RNA 331
[14] = Formulation No. 010, RNA No. 331, 1 μg/mL RNA-LNPs
[15] = Formulation No. 010 (Ionizable lipid:DSPC:cholesterol:DSPE-PEG2000 = 38:30:30:2, N/P 6)
[16] = Formulation No. 010, RNA No. 331 (firefly-luciferase)
[17] = Formulation No. 001, RNA No. 331, 24-hours post injection

| SMILES | EE (%) [1, 10] | EE (%) [1, 11] | EE (%) [1, 12] | Edema, subcutaneous, focal, Grade ([2]; per animal) | Erosion, focal, Grade ([2]; per animal) | Infiltration, mononuclear cells, dermis/subcutaneous, focal, Grade ([2]; per animal) | Total score [2] | Injection site Skin (p/s) [3] | Lymph node (p/s) [3] | Whole body (p/s) [3] | Heart (p/s) [4] | Injection site muscle (p/s) [4] | Kidney (p/s) [4] | Liver (p/s) [4] | Lung (p/s) [4] | Spleen (p/s) [4] | Whole body (p/s) [4] | PDI [8, 10] | Size [8, 10] | PDI [8, 11] | further results |
| --- | --- | --- | --- | --- | --- | --- | --- | --- | --- | --- | --- | --- | --- | --- | --- | --- | --- | --- | --- | --- | --- |
| CCCCC/C=C\C/C=C\CCCCCCCC(=O)NC(COC(=O)NCCN1CCCCC1)C(=O)OCCCCCCCC(=O)OC(CCCCCCCC)CCCCCCCC (centres unmarked) [Lipid 549] | 94.25% | 94.58% | 96.68% | — and 1 (2×) | — | — and 1 (2×) | 4 | 3.41E+06 p/s | 3.17E+06 p/s | 4.38E+07 p/s | 8.09E+05 p/s | 2.75E+08 p/s | 1.23E+07 p/s | 1.76E+08 p/s | 1.24E+06 p/s | 6.26E+07 p/s | 1.10E+09 p/s | 0.04 | 64.53 nm | 0.04 | Skin, Grade ([2]; per animal): N; In vitro cell viability (%) (Mean) [5, 13]: 79.09%; In vitro cell viability (%) (Mean) [5, 14]: 88.89%; MCP-1 at 2 h [6]: 299 pg/mL; MCP-1 at 24 h [6]: 3980 pg/mL; Whole body at 24 h (p/s) (Mean) [7]: 2.75E+08 p/s; Whole body at 72 h (p/s) (Mean) [7]: 7.85E+07 p/s; Size [8, 11]: 61.34 nm; Size (nm) [8, 15]: 57.35 nm; PDI [8, 12]: 0.13; In vitro Expression (Mean) ([9]; Formulation 001, RNA 331): 7.02E+05; In vitro Expression (Mean) [9, 16]: 5.75E+05 |
| CCCCCCCC/C=C\CCCCCCCC(=O)NC(COC(=O)NCCN1CCCCC1)C(=O)OCCCCCCCCOC(=O)C(CCCCCC)CCCCCCCC (centres unmarked) [Lipid 700] | 96.00% | 94.45% | 96.73% | 1 (2×) and 2 | — | 1 | 7 | 1.75E+07 p/s | 1.57E+06 p/s | 8.00E+07 p/s | 1.79E+05 p/s | 3.07E+08 p/s | 9.03E+05 p/s | 8.73E+07 p/s | 3.11E+05 p/s | 1.21E+07 p/s | 5.65E+08 p/s | 0.06 | 68.99 nm | 0.06 | In vitro cell viability (%) (Mean) [5, 13]: 78.82%; In vitro cell viability (%) (Mean) [5, 14]: 99.10%; MCP-1 at 2 h [6]: 281 pg/mL; MCP-1 at 24 h [6]: 3270 pg/mL; Whole body at 24 h (p/s) (Mean) [7]: 3.40E+08 p/s; Whole body at 72 h (p/s) (Mean) [7]: 1.34E+08 p/s; Size [8, 11]: 62.57 nm; Size (nm) [8, 15]: 55.29 nm; PDI [8, 12]: 0.07; In vitro Expression (Mean) ([9]; Formulation 001, RNA 331): 7.16E+05; In vitro Expression (Mean) [9, 16]: 3.61E+05 |
| CCCCCCCCC(CCCCCC)C(=O)OCCCCCCCCOC(=O)NC(COC(=O)NCCN1CCCCC1)C(=O)OCCCCCCCCOC(=O)C(CCCCCC)CCCCCCCC (centres unmarked) [Lipid 888] | 97.48% | 93.81% |  |  |  |  |  |  |  |  |  |  |  |  |  |  |  | 0.05 | 59.39 nm | 0.01 | In vitro cell viability (%) (Mean) ([5]; Formulation No. 001, RNA No. 331, 1 μg/mL RNA-LNPs): 89.73%; Liver (p/s) (Mean) [7, 17]: 2.18E+08 p/s; Spleen (p/s) (Mean) [7, 17]: 7.61E+07 p/s; Whole body (p/s) (Mean) [7, 17]: 1.35E+09 p/s; Size (nm) ([8]; Formulation No. 001 (Ionizable lipid:DSPC:cholesterol:DMG-PEG2000 = 50:10:38.5:1.5, N/P 6)): 62.46 nm; In vitro Expression (Mean) ([9]; Formulation No. 001, RNA No. 331 (firefly-luciferase)): 4.84E+05 |
